The text below walks through data of ChEMBL document CHEMBL5620360, “Design, synthesis and biological evaluation of 4-(4-aminophenoxy)picolinamide derivatives as potential antitumor agents” (Eur J Med Chem, 2023).

One assay deals with HeLa. Put plainly: Antiproliferative activity against human HeLa cells assessed as reduction in cell viability incubated for 72 hrs by MTT assay. In kind it is functional, cell-based. The note with it: for pIC50: Homo sapiens, HeLa, 72 h, read-out: IC50; for IC50: hela. A general note: Tetrazolium dyes change colour on reduction, which living cells bring about.
For assay [1], the system named is A549. The assay can be described thus: cells. The note with it: Homo sapiens, A549, 72 h.
In assay [2] the test system is MCF7. Put plainly: cells. The note with it: Homo sapiens, MCF7, 72 h.
Assay [3] concerns A549.
Assay [4] deals with MCF7.
Assay [5] has as its system A549. The assay can be described thus: Induction of apoptosis in human A549 cells assessed as viable cells at 5 uM measured after 24 hrs by AnnexinV-FITC/PI staining based flow cytometry (reference value: 93.25%). The class given is functional. The note with it: read-out: Activity.
Assay [6] has as its system A549. The assay can be described thus: Induction of apoptosis in human A549 cells assessed as early apoptotic cells at 5 uM measured after 24 hrs by AnnexinV-FITC/PI staining based flow cytometry (reference value: 1.26%). In kind it is functional. Background: A flow cytometer gives signals particle by particle.
Assay [7] has as its system A549. The assay can be described thus: Induction of apoptosis in human A549 cells assessed as late apoptotic cells at 5 uM measured after 24 hrs by AnnexinV-FITC/PI staining based flow cytometry (reference value: 1.47%). The class given is functional.
Assay [8] has as its system A549. Put plainly: Induction of apoptosis in human A549 cells assessed as necrotic cells at 5 uM measured after 24 hrs by AnnexinV-FITC/PI staining based flow cytometry (reference value: 4.01%). The class given is functional.
The test system of assay [9] is A549. The assay can be described thus: Induction of cell cycle arrest in human A549 cells assessed as accumulation of cells at G1 phase at 5 uM incubated for 24 hrs by propidium iodide staining based flow cytometry (reference value: 54.46%). The class given is functional.
The subject of assay [10] is A549. Put plainly: Induction of cell cycle arrest in human A549 cells assessed as accumulation of cells at G2 phase at 5 uM incubated for 24 hrs by propidium iodide staining based flow cytometry (reference value: 7.36%). In kind it is functional.
The subject of assay [11] is A549. The assay can be described thus: Induction of cell cycle arrest in human A549 cells assessed as accumulation of cells at S phase at 5 uM incubated for 24 hrs by propidium iodide staining based flow cytometry (reference value: 38.18%). The class given is functional.

The structures appear in SMILES notation. pIC50: −log10 of the molar value.

Turning to `O=C(Nc1ccc(Oc2ccnc(C(=O)N3CCCC3)c2)cc1)c1cn(-c2ccc(F)cc2)c2ncccc2c1=O`, the pIC50 – broadly, −log10 of the IC50, conventionally taken in molar units – is 5.28 in the assay on HeLa, 5.46 in the assay on A549 [1] and 4.82 in the assay with MCF7 [2].

Take `COc1ccc(-n2cc(C(=O)Nc3ccc(Oc4ccnc(C(=O)NCCCN5CCOCC5)c4)c(F)c3)c(=O)c3cccnc32)cc1`: the figures for the pIC50 in the assay on HeLa, in the assay on A549 [1] and in the assay on MCF7 [2] were 4.76, 4.71 and 4.51, respectively.

As to `O=C(Nc1ccc(Oc2ccnc(C(=O)N3CCCC3)c2)c(F)c1)c1cn(-c2ccc(Br)cc2F)c2ncccc2c1=O`, the negative logarithm of the IC50 (pIC50) in the assay on HeLa is 4.29. Besides, the IC50 entry with A549 [3] and with MCF7 [4] was “Not Active” throughout.

Turning to `COc1cc2nccc(Oc3ccc(NC(=O)C4(C(=O)Nc5ccc(F)cc5)CC4)cc3)c2cc1OC` [CABOZANTINIB], the pIC50 is 5.93 in the assay with HeLa, 6.21 in the assay with A549 [1] and 5.50 in the assay on MCF7 [2]. In addition, the viability at 5 µM in the assay on A549 [5] is 88.2%. The Activity in the assay on A549 [6] stood at 2.33%; in the assay with A549 [7] it was 4.25%; in the assay on A549 [8], 5.19%; with A549 [9] it was 56.19%; in the assay with A549 [10], 11.66%; with A549 [11] it was 32.15%.

Regarding `CCCNC(=O)c1cc(Oc2ccc(NC(=O)c3cn(-c4ccc(Cl)cc4)c4ncccc4c3=O)cc2F)ccn1`, the pIC50 in the assay with HeLa was 4.18; in the assay with A549 [1], 4.35; in the assay with MCF7 [2], 4.28.

On to `CCCNC(=O)c1cc(Oc2ccc(NC(=O)c3cn(-c4ccc(Br)cc4F)c4ncccc4c3=O)cc2)ccn1`, for which the pIC50 with HeLa is 4.09. For the same molecule, the IC50 result in the assay with A549 [3] and in the assay with MCF7 [4] was “Not Active” in each case.

Turning to `O=C(NCCCN1CCOCC1)c1cc(Oc2ccc(NC(=O)c3cn(-c4ccc(Br)cc4F)c4ncccc4c3=O)cc2F)ccn1`, the pIC50 was 5.73 in the assay on HeLa, 5.93 with A549 [1] and 5.45 in the assay on MCF7 [2].

Consider `CCCNC(=O)c1cc(Oc2ccc(NC(=O)c3cn(-c4ccc(F)c(Cl)c4)c4ncccc4c3=O)cc2F)ccn1`, for which the figures for the pIC50 in the assay on HeLa, with A549 [1] and with MCF7 [2] were 4.36, 4.46 and 4.41, respectively.

For the molecule `CCCNC(=O)c1cc(Oc2ccc(NC(=O)c3cn(-c4ccccc4)c4ncccc4c3=O)cc2F)ccn1`, the pIC50 was 4.12 with HeLa, 4.17 in the assay on A549 [1] and 4.13 in the assay with MCF7 [2].

On to `O=C(Nc1ccc(Oc2ccnc(C(=O)N3CCCC3)c2)cc1)c1cn(-c2ccc(Br)cc2)c2ncccc2c1=O`, for which the pIC50 was 4.12 in the assay on HeLa and 4.21 in the assay on MCF7 [2]. In addition, the IC50 entry in the assay on A549 [3] is reported as “Not Active”.

As to `O=C(NCCCN1CCOCC1)c1cc(Oc2ccc(NC(=O)c3cn(-c4ccccc4)c4ncccc4c3=O)cc2F)ccn1`, the pIC50 in the assay on HeLa is 5.15; in the assay with A549 [1], 5.02; in the assay on MCF7 [2], 4.63.

With `O=C(Nc1ccc(Oc2ccnc(C(=O)N3CCCC3)c2)cc1)c1cn(-c2ccc(Cl)cc2)c2ncccc2c1=O`, the figures for the pIC50 in the assay with HeLa, in the assay with A549 [1] and in the assay with MCF7 [2] were 4.17, 4.24 and 4.16, respectively.

In the case of `CCCNC(=O)c1cc(Oc2ccc(NC(=O)c3cn(-c4ccc(Br)cc4)c4ncccc4c3=O)cc2F)ccn1`, the negative-log IC50 (pIC50) in the assay on HeLa is 4.45; with A549 [1], 5.10; in the assay with MCF7 [2] it was 4.98.

Turning to `O=C(Nc1ccc(Oc2ccnc(C(=O)N3CCCC3)c2)cc1)c1cn(-c2ccccc2)c2ncccc2c1=O`, the pIC50 in the assay on HeLa was 4.38; in the assay with A549 [1], 4.32; in the assay with MCF7 [2], 4.42.

On to `O=C(Nc1ccc(Oc2ccnc(C(=O)N3CCCC3)c2)c(F)c1)c1cn(-c2ccc(F)cc2)c2ncccc2c1=O`, for which the pIC50 in the assay with HeLa is 5.67; in the assay on A549 [1], 5.79; in the assay on MCF7 [2] it was 5.53.

For the molecule `O=C(NCCCN1CCOCC1)c1cc(Oc2ccc(NC(=O)c3cn(-c4ccc(Br)cc4)c4ncccc4c3=O)cc2F)ccn1`, the pIC50 with HeLa is 5.34; with A549 [1] it was 5.54; in the assay on MCF7 [2], 5.31.

For `O=C(Nc1ccc(Oc2ccnc(C(=O)N3CCCC3)c2)c(F)c1)c1cn(-c2ccc(F)c(Cl)c2)c2ncccc2c1=O`, the negative-log IC50 (pIC50) with HeLa is 5.89; in the assay on A549 [1], 6.01; with MCF7 [2] it was 5.53.

On to `O=C(Nc1ccc(Oc2ccnc(C(=O)N3CCCC3)c2)c(F)c1)c1cn(-c2ccccc2)c2ncccc2c1=O`, for which the pIC50 is 4.22 in the assay with HeLa and 4.16 in the assay with MCF7 [2]. In addition, the IC50 entry in the assay on A549 [3] is “Not Active”.

For the molecule `CCCNC(=O)c1cc(Oc2ccc(NC(=O)c3cn(-c4ccc(Br)cc4F)c4ncccc4c3=O)cc2F)ccn1`, the pIC50 in the assay on HeLa was 4.38; with A549 [1], 4.73; in the assay on MCF7 [2], 4.76.

For `CCCNC(=O)c1cc(Oc2ccc(NC(=O)c3cn(-c4ccc(OC)cc4)c4ncccc4c3=O)cc2F)ccn1`, the pIC50 is 4.17 in the assay on HeLa, 4.29 in the assay with A549 [1] and 4.15 with MCF7 [2].

On to `O=C(NCCCN1CCOCC1)c1cc(Oc2ccc(NC(=O)c3cn(-c4ccc(F)c(Cl)c4)c4ncccc4c3=O)cc2)ccn1`, for which the results for the pIC50 in the assay on HeLa, in the assay with A549 [1] and with MCF7 [2] were 4.41, 5.10 and 4.37, respectively.

As to `O=C(Nc1ccc(Oc2ccnc(C(=O)N3CCCC3)c2)cc1)c1cn(-c2ccc(Br)cc2F)c2ncccc2c1=O`, the IC50 result with HeLa is on record as “Not Active”. Besides, the pIC50 is 4.25 with A549 [1] and 4.11 in the assay on MCF7 [2].

Consider `O=C(Nc1ccc(Oc2ccnc(C(=O)N3CCCC3)c2)c(F)c1)c1cn(-c2ccc(Br)cc2)c2ncccc2c1=O`, for which the pIC50 in the assay on HeLa is 4.37; in the assay on MCF7 [2], 4.35. Further, the IC50 entry in the assay on A549 [3] is “Not Active”.

Take `CCCNC(=O)c1cc(Oc2ccc(NC(=O)c3cn(-c4ccc(Br)cc4)c4ncccc4c3=O)cc2)ccn1`: the pIC50 with HeLa is 4.18; in the assay with MCF7 [2], 4.13. Moreover, the IC50 entry in the assay with A549 [3] is “Not Active”.

As to `COc1ccc(-n2cc(C(=O)Nc3ccc(Oc4ccnc(C(=O)NCCCN5CCOCC5)c4)cc3)c(=O)c3cccnc32)cc1`, the pIC50 with HeLa is 4.55; in the assay with A549 [1], 4.79; in the assay with MCF7 [2] it was 4.54.

Regarding `O=C(NCCCN1CCOCC1)c1cc(Oc2ccc(NC(=O)c3cn(-c4ccc(Br)cc4F)c4ncccc4c3=O)cc2)ccn1`, the negative logarithm of the IC50 (pIC50) in the assay on HeLa was 5.10; with A549 [1] it was 5.03; with MCF7 [2], 6.08.

On to `COc1ccc(-n2cc(C(=O)Nc3ccc(Oc4ccnc(C(=O)N5CCCC5)c4)cc3)c(=O)c3cccnc32)cc1`, for which the pIC50 was 4.24 with HeLa, 4.47 with A549 [1] and 4.21 in the assay with MCF7 [2].

As to `CCCNC(=O)c1cc(Oc2ccc(NC(=O)c3cn(-c4ccc(F)cc4)c4ncccc4c3=O)cc2)ccn1`, the pIC50 was 5.96 in the assay with HeLa, 6.05 in the assay with A549 [1] and 5.52 with MCF7 [2].

As for `O=C(NCCCN1CCOCC1)c1cc(Oc2ccc(NC(=O)c3cn(-c4ccc(Cl)cc4)c4ncccc4c3=O)cc2F)ccn1`, the pIC50 in the assay with HeLa was 4.53; in the assay with A549 [1], 5.41; in the assay with MCF7 [2] it was 4.41.

For `O=C(NCCCN1CCOCC1)c1cc(Oc2ccc(NC(=O)c3cn(-c4ccc(Br)cc4)c4ncccc4c3=O)cc2)ccn1`, the negative-log IC50 (pIC50) in the assay on HeLa is 5.01; in the assay with A549 [1] it was 6.13; in the assay on MCF7 [2], 4.96.

For `O=C(NCCCN1CCOCC1)c1cc(Oc2ccc(NC(=O)c3cn(-c4ccc(F)cc4)c4ncccc4c3=O)cc2)ccn1`, the pIC50 was 5.10 in the assay with HeLa, 5.38 with A549 [1] and 5.24 with MCF7 [2].

Regarding `CCCNC(=O)c1cc(Oc2ccc(NC(=O)c3cn(-c4ccc(OC)cc4)c4ncccc4c3=O)cc2)ccn1`, the figures for the pIC50 in the assay with HeLa, with A549 [1] and in the assay with MCF7 [2] were 5.70, 6.02 and 5.54, respectively.

Take `COc1ccc(-n2cc(C(=O)Nc3ccc(Oc4ccnc(C(=O)N5CCCC5)c4)c(F)c3)c(=O)c3cccnc32)cc1`: the IC50 result in the assay with HeLa and in the assay with A549 [3] was “Not Active” throughout. Further, the pIC50 with MCF7 [2] was 4.11.

For the molecule `O=C(Nc1ccc(Oc2ccnc(C(=O)N3CCCC3)c2)c(F)c1)c1cn(-c2ccc(Cl)cc2)c2ncccc2c1=O`, the pIC50 with HeLa is 4.12; with A549 [1] it was 4.10; in the assay with MCF7 [2], 4.09.

`CCCNC(=O)c1cc(Oc2ccc(NC(=O)c3cn(-c4ccc(F)cc4)c4ncccc4c3=O)cc2F)ccn1`: the pIC50 with HeLa was 4.62; with A549 [1], 4.71; in the assay with MCF7 [2], 4.39.

As for `O=C(NCCCN1CCOCC1)c1cc(Oc2ccc(NC(=O)c3cn(-c4ccc(F)cc4)c4ncccc4c3=O)cc2F)ccn1`, the pIC50 with HeLa is 5.80; with A549 [1], 6.24; in the assay on MCF7 [2], 5.30.
